Test results reported in patent publication US7875638B2, “Synthesis of epothilones, intermediates thereto, analogues and uses thereof” (Sloan-Kettering Institute for Cancer Research, priority 2002, dated 2011).

Assays:
[1] = test system: RPMI-8226 (human multiple myeloma cell line); experiment: Global gene expression (Affymetrix chip AU133 2.0); assay type: cell-based
[2] = test system: human mammary carcinoma MX-1 xenograft; experiment: MX-1 xenograft in nude mice; details: mouse, in vivo
Ovcar-3 = experiment: XTT cell growth inhibition, Ovcar-3; assay type: cell-based; details: Homo sapiens, OVCAR-3, read-out: IC50 (nM), Ovcar-3
primary CD138 MM cells = experiment: Apoptosis of primary myeloma cells; assay type: cell-based, human; details: cells obtained from patient marrow
CAG myeloma cell lines = experiment: Cell cycle analysis (propidium iodide DNA staining), CAG; assay type: cell-based, human; details: 31.25 nM
Source text: CAG myeloma cell lines were used.

[3] = test system: RPMI8226 myeloma cell line; experiment: Annexin V staining, RPMI8226; assay type: cell-based, human; details: 24 hours treatment
Source text: In early apoptotic cells, the membrance phospholipids phosphatidylserine (PS) is translocated from the inner to the outer leaflet of the plasma membrane, thereby exposing PS to the external cellular environment. Annexin V is a 35-36 kD Ca^+2 dependent phospholipid-binding protein that has a high affinity for PS, and binds to cells with exposed PS. In conjunction with a vital dye such as 7-amino-actinomycin (7-AAD) staining dead cells, this assay allows the identification of early apoptotic cells.

in vitro = details: human, s9
Experimental: Stability of epothilones in mouse and in human liver S9 fraction. The stability study was carried out with a fully automated HPLC system which consisted of a Prospekt-2 (Spark Holland, Netherlands) sample preparation system and an Agilent 1100 HPLC system. Briefly, the Prospekt 2 picked up a C8 extraction cartridge and washed it with acetonitrile and water. The Agilent autosampler, set at 37° C., picked up 20 μl of the sample, loaded it onto the cartridge, washed it with water, then the Prospekt-2 diverted the mobile phase stream through the extraction cartridge onto the analytical column, Reliance Stable Bond C8 4×80 mm with guard column (MacMod, Chadds Ford, Pa.) and the eluent was monitored at 250 nm. […] Sample preparation involved the addition of equal volumes of plasma to PBS for a total volume of 300-400 μl, filtered, and the addition of 0.5-2 μl of the substrate (20 mM) to achieve about 30-50 mAU at 250 nm in the HPLC analysis. For pooled human liver microsome S9 fraction (Xeno Tech, Lenex, Kans.), 20 μl (400 μg) or S9 fraction was mixed with 280 μl of PBS then proceeded as above. The sampling period was controlled by the autosampler and peak area data were collected to compare the rate of disappearance of the parent compound.
Stability of epothilones in mouse and in human liver S9 fraction: The stability study was carried out with a fully automated HPLC system which consisted of a Prospekt-2 (Spark Holland, Netherlands) sample preparation system and an Agilent 1100 HPLC system. Briefly, the Prospekt 2 picked up a C8 extraction cartridge and washed it with acetonitrile and water. The Agilent autosampler, set at 37° C., picked up 20 μl of the sample, loaded it onto the cartridge, washed it with water, then the Prospekt-2 diverted the mobile phase stream through the extraction cartridge onto the analytical column, Reliance Stable Bond C8 4×80 mm with guard column (MacMod, Chadds Ford, Pa.) and the eluent was monitored at 250 nm. […] Sample preparation involves the addition of equal volumes of plasma to PBS for a total volume of 400 μl, filtered, and the addition of 0.5-2 μl of the substrate (20 mM) to achieve about 30-50 mAU at 250 nm in the HPLC analysis. For pooled human liver microsome S9 fraction (Xeno Tech, Lenex, Kans.), 20 μl (400 μg) or S9 fraction was mixed with 280 μl of PBS then proceeds as above. The sampling period was controlled by the autosampler and peak area data were collected to compare the rate of disappearance of the parent compound.

[4] = test system: RPMI8226 myeloma cell lines; experiment: Cell cycle analysis (propidium iodide DNA staining), RPMI8226; assay type: cell-based, human; details: 31.25 nM
Source text: RPMI8226 myeloma cell lines were used.

[5] = test system: myeloma cell lines (RPMI8226, CAG); experiment: XTT cell proliferation, myeloma cell lines; assay type: cell-based, human; details: Homo sapiens, RPMI-8226, read-out: IC50, myeloma cell lines (RPMI8226, CAG)
OPM-2 = experiment: XTT cell growth inhibition, OPM-2; assay type: cell-based; details: Homo sapiens, OPM-2, read-out: IC50 (nM), OPM-2
SKOV3 = experiment: XTT cell growth inhibition, SKOV3; assay type: cell-based; details: Homo sapiens, SK-OV-3, read-out: IC50 (nM), SKOV3
[6] = test system: human mammary carcinoma MX-1 xenograft; details: mouse, in vivo
CAG = experiment: XTT cell growth inhibition, CAG; assay type: cell-based; details: Homo sapiens, read-out: IC50 (nM), CAG
[7] = test system: human lung carcinoma xenograft (A549); experiment: A549 xenograft in nude mice; details: 29: after two more doses; dEpoB: 30 mg/kg, Q2Dx6
[8] = Octanol-water partition (POW) number by HPLC; assay type: physicochemical; details: HPLC estimate, pH 7.4 buffer; read-out: Lipophilicity octanol/water partition (POW)
Experimental: Determination of partition of octanol-water (POW) number. An HPLC method is used to estimate octanol-water partition. An Agilent 1100 HPLC system is used with an eclipse XDB C18 column 4.6×250 mm with a mobile phase of 60% acetonitrile/40% 25 mM potassium phosphate buffer at pH 7.4 with a flow rate of 0.8 ml per min. and the eluent is monitored at 250 nm. The standards used are benzyl alcohol, acetophenone, benzophenone, naphthalene, diphenyl ether and dibenzyl with known POW of […] respectively. Sodium dichromate is used to evaluate time zero which is 2.5 min and the retention times for the standards are 3.9, 5.4, 10.6, 14, 18.7 and 19.8 min, respectively. The k value is calculated by the formula of k=(trt−t0)/t0. Linear regression of log k vs. log POW gives a straight line with r^2=0.966. This graph is used to evaluate the POW value of the epothilone analogs.

C/C1=C/CC(/C(C)=C/c2csc(C)n2)OC(=O)C[C@H](O)C(C)(C)C(=O)[C@H](C)[C@@H](O)[C@@H](C)CCC1 (some centres unmarked) [Compound 1, 12,13-desoxyepothilone B, reference compound]
Increase in expression, OAS2 ([1]; 6 hrs or 18 hrs of dEpoB treatment): +2
Increase in expression, MX1 ([1]; 18 hrs of dEpoB treatment): +2.3
Changes of body weight (%) on day 4 after stopping administration [2]: −25.3 ± 2.1%
Changes of body weight (%) on day 8 after stopping administration [2]: −9.1 ± 4.1%
IC50 (Ovcar-3): 14 ± 3.6 nM
Tumor apoptosis within 24 hrs (primary CD138 MM cells): not
Cell cycle arrest (CAG myeloma cell lines): absolutely blocked cell cycle at G2M phase
Apoptosis (Annexin V / 7-AAD) [3]: majority of cell either enter apoptosis or are dead
half-life (in vitro): 1 ± 0.1 h
Cell cycle arrest [4]: absolutely blocked cell cycle at G2M phase
IC50 [5]: 36.7 to 61.3 nM
IC50 (OPM-2): 38.9 ± 3.3 nM
IC50 (SKOV3): 13 ± 4.7 nM
Decrease in body weight without lethality [6]: 31%
IC50 (CAG): 61.3 ± 4.2 nM
Tumor eradication [7]: no tumor eradication
chromatographic logP [8]: 4.4
